From patent US20220079966A1, “HYALURONAN SYNTHESIS INHIBITION FOR TREATING AUTOIMMUNE, INFLAMMATORY, FIBROTIC, OR PROLIFERATIVE DISEASES OR DISORDERS” (The Board of Trustees of the Leland Stanford Junior …, priority 2018, published 2022)

Legend:
[1] = cited from earlier work
[2] = test system: blood leukocytes; assay: Leukocyte 4-MU uptake in mice on oral 4-MU (flow cytometry, Pacific Blue channel); type: in vivo, C57Bl/6J mice; details: blood leukocyte subsets, days 0, 2, 7, 14
Text: Next, the uptake of 4-MU by different leukocyte subsets was examined. To this end, mice were fed 4-MU and 4-MU signal was examined on blood leukocytes from representative animals at intervals of 0, 2, 7, and 14 days after the initiation of 4-MU treatment. […] Bold histograms depict signal in 4-MU treated mice, shaded histograms depict background Pacific Blue signal in untreated mice. Cell surface markers were stained to examine 4-MU uptake by multiple cell types, including CD4+ T-cells (CD3+CD4+), CD8+ T-cells (CD3+CD8+), B-cells (I-A/I-E+B220+) dendritic cells (DC; I-A/I-E+CD11c+), macrophages (Mc); I-A/I-E+CD11c−), neutrophils (Ly6G/C+CD14+) and monocytes (Ly6G/C-CD14+).
C57Bl/6J mice were treated with 4-MU and leukocytes from representative animals were isolated from the blood at baseline (before 4-MU treatment) and at intervals of 2, 7, and 14 days after the initiation of chow. […] To detect fluorescence emitted by 4-MU using flow cytometry on specific leukocyte subsets, peripheral blood red cells were lysed using Ammonium-Chloride-Potassium (ACK) buffer, and leukocytes were stained with the following fluorochrome-conjugated antibodies: BV650-CD3 (17-A2), BV785-CD4 (RM4-5), APC-CD11c (N418), PE-CD14 (Sa2-8), PE-Cy7-Ly-6G/C (RB6-8C5), PE-CyS. […] Samples were run on a BD™ LSRII flow cytometer (Beckon Dickinson) and data was analyzed using FlowJo software (TreeStar).

[3] = Conversion of 4-MUG into fluorescent 4-MU in medium (fluorescence plate reader); type: in vitro ADME; details: PBS with 10% FCS, monitored up to 72 hours
Experimental: Given the established activity of 4-MU leading to inhibition of HA synthesis, it seemed possible that the bioactivity of 4-MUG could be attributed to its hydrolysis into 4-MU. It is generally known that 4-MU is fluorescent while 4-MUG is not. In particular, 4-MU has an excitation wavelength of 380 nm and an emission wavelength of 454 nm in water.
Fluorescent values of 4-MUG were normalized to the 4-MU fluorescence. Referring to FIG. 2 B, 4-MU or 4-MUG was added to PBS with 10% FCS and the increase of fluorescence signal using a fluorescence plate reader was monitored at intervals up to 72 hours.

[4] = Chemical stability of 4-MUG in fasted state simulated gastric fluid; type: physicochemical; details: 100 μM, FaSSGF pH 1.6, 37° C., 0-120 minutes
Experimental: To determine the chemical stability of 4-MUG, its half-life (t1/2) was evaluated. 4-MUG was tested at a concentration of 100 μM. The internal standard (IS) was prepared at 50 ng/mL with tolbutamide in DMSO and a buffer solution was prepared of fasted state simulated gastric fluid (FaSSGF) at pH 1.6. The buffer was pre-warmed at 37° C. for 15 minutes, subsequently 4-MUG was added, and the solution was vortexed. Next, 30 μL of this reaction mixture was removed at each time point for analysis. The time points included 0 minutes, 15 minutes, 30 minutes, 60 minutes and 120 minutes. The reaction was stopped at the end of the experiment by adding IS solution. The samples were centrifuged at 4,000 rpm for 15 minutes at 4° C. 100 μL of the supernatant was mixed with distilled water for further liquid chromatography with tandem mass spectrometry (LC-MS/MS) analysis. The mass spectrometry detection was performed using a SCIEX® API 4500 Qtrap® (Sciex, Redwood City, Calif.). Each compound was analyzed by reverse phase high performance liquid chromatography (HPLC). The parameters calculated were the ratio of 4-MUG, the percent of 4-MUG remaining versus time, and the estimation of 4-MUG's t1/2.

[5] = test system: CHO-HAS3 cells; assay: HA production by CHO-HAS3 cells engineered to overexpress HAS3; type: cell-based; details: 48 hours; non-hydrolyzable 4-MUG at comparable doses to 4-MU or conventional 4-MUG
Experimental: Samples were thawed and assayed for HA levels using a modified HA ELISA as previously described (Nagy N., et al., J. Clin. Invest. 2015; 125(10):3928-3940). Each sample was analyzed in triplicate with a mean value obtained per sample. For cell normalization, LI-COR CellTag™ 700 Stain was used according to the manufactures protocol.
To test whether 4-MUG has bioactivity independently of any possible conversion to 4-MU, a non-hydrolyzable version of 4-MUG was generated (FIG. 5A).

In the case of `Cc1cc(=O)oc2cc(O)ccc12` [4-MU, 4-methylumbelliferone], the “fraction of a single intravenous dose eliminated as the 4-MUG metabolite in urine” value ([1]; in humans, single intravenous dose of 4-MU) is given as 93%, the half-life ([1]; in humans) is given as 28 min and the “share of 4-MU metabolism accounted for by glucuronidation into 4-MUG” value ([1]; in humans) is given as “over 90%”. The “fraction of a given dose excreted unchanged in the urine” value ([1]; species not given) was < 1%, the systemic oral bioavailability ([1]; species not given) was < 3% and the “time period of oral treatment required for leukocyte populations to take up 4-MU” value [2] was 1-2 weeks.
For `Cc1cc(=O)oc2cc(O[C@@H]3O[C@H](C(=O)O)[C@@H](O)[C@H](O)[C@H]3O)ccc12` [4-MUG, 4-methylumbelliferone-glucuronide], the “time from which fluorescence (conversion to 4-MU) could be detected” value [3] was “around 30 hours”, the chemical stability [4] was “stable” and the “HA production by CHO-HAS3 cells” value [5] was “directly inhibits HA synthesis”.
